Measurements as given in the NIST ThermoML archive (doi:10.1016/j.jct.2018.11.014).
± gives the expanded uncertainty stated by the source.

Experiment: molar heat capacity at constant pressure
Conditions: 101.33 kPa, Crystal, Vacuum adiabatic calorimetry

O=C(CO)[C@H](O)[C@H](O)[C@H](O)CO [D-psicose]
Conditions | molar heat capacity at constant pressure [J/K/mol]
10 K | 1.06 ± 0.02
13.99 K | 3.375 ± 0.044
14.02 K | 3.439 ± 0.044
14.28 K | 3.64 ± 0.047
14.4 K | 3.754 ± 0.048
14.66 K | 3.847 ± 0.049
14.86 K | 4.085 ± 0.051
15.13 K | 4.198 ± 0.052
15.37 K | 4.483 ± 0.055
15.64 K | 4.671 ± 0.057
15.88 K | 4.798 ± 0.058
16.15 K | 5.026 ± 0.061
16.39 K | 5.238 ± 0.063
16.66 K | 5.478 ± 0.065
16.87 K | 5.647 ± 0.067
17.18 K | 5.894 ± 0.07
17.36 K | 6.237 ± 0.073
17.71 K | 6.348 ± 0.074
17.89 K | 6.508 ± 0.076
18.23 K | 6.844 ± 0.079
18.41 K | 6.995 ± 0.081
18.75 K | 7.275 ± 0.084
18.93 K | 7.521 ± 0.086
19.28 K | 7.752 ± 0.088
19.46 K | 7.915 ± 0.09
19.8 K | 8.239 ± 0.093
19.98 K | 8.416 ± 0.095
20 K | 8.42 ± 0.1
20.3 K | 8.666 ± 0.098
20.5 K | 8.908 ± 0.1
20.83 K | 9.202 ± 0.1
21.03 K | 9.391 ± 0.1
21.37 K | 9.657 ± 0.11
21.57 K | 9.861 ± 0.11
21.92 K | 10.24 ± 0.11
22.13 K | 10.42 ± 0.12
22.49 K | 10.72 ± 0.12
22.7 K | 10.96 ± 0.12
23.05 K | 11.3 ± 0.12
23.26 K | 11.48 ± 0.12
23.62 K | 11.82 ± 0.13
23.81 K | 12.26 ± 0.13
24.15 K | 12.34 ± 0.13
24.36 K | 12.54 ± 0.14
24.65 K | 12.88 ± 0.14
24.9 K | 13.06 ± 0.14
25.16 K | 13.34 ± 0.14
25.45 K | 13.61 ± 0.15
25.69 K | 13.83 ± 0.15
26.02 K | 14.15 ± 0.15
26.24 K | 14.43 ± 0.15
26.59 K | 14.76 ± 0.16
26.81 K | 14.99 ± 0.16
27.15 K | 15.34 ± 0.16
27.39 K | 15.49 ± 0.16
27.7 K | 15.88 ± 0.17
27.98 K | 16.13 ± 0.17
28.26 K | 16.42 ± 0.17
28.56 K | 16.7 ± 0.18
28.82 K | 16.95 ± 0.18
29.15 K | 17.31 ± 0.18
29.37 K | 17.41 ± 0.18
29.75 K | 17.78 ± 0.19
29.95 K | 18.06 ± 0.19
30 K | 18.07 ± 0.19
30.36 K | 18.41 ± 0.19
30.55 K | 18.62 ± 0.2
31.01 K | 19.02 ± 0.2
31.16 K | 19.16 ± 0.2
31.66 K | 19.69 ± 0.21
31.8 K | 19.88 ± 0.21
32.32 K | 20.31 ± 0.21
32.46 K | 20.43 ± 0.21
32.98 K | 20.91 ± 0.22
33.13 K | 21.09 ± 0.22
33.66 K | 21.61 ± 0.23
33.8 K | 21.78 ± 0.23
34.35 K | 22.21 ± 0.23
34.48 K | 22.3 ± 0.23
35.05 K | 22.92 ± 0.24
35.17 K | 22.97 ± 0.24
35.76 K | 23.59 ± 0.24
35.88 K | 23.74 ± 0.25
36.48 K | 24.27 ± 0.25
36.63 K | 24.38 ± 0.25
37.21 K | 24.86 ± 0.26
37.36 K | 25.09 ± 0.26
37.96 K | 25.64 ± 0.27
38.08 K | 25.78 ± 0.27
38.67 K | 26.21 ± 0.27
38.81 K | 26.52 ± 0.27
39.35 K | 26.89 ± 0.28
39.58 K | 27.16 ± 0.28
40 K | 27.53 ± 0.28
40.05 K | 27.63 ± 0.28
40.43 K | 27.95 ± 0.29
40.77 K | 28.11 ± 0.29
41.28 K | 28.77 ± 0.3
41.49 K | 28.95 ± 0.3
42.02 K | 29.4 ± 0.3
42.23 K | 29.59 ± 0.3
42.78 K | 30.13 ± 0.31
42.98 K | 30.25 ± 0.31
43.57 K | 30.79 ± 0.32
43.74 K | 30.97 ± 0.32
44.37 K | 31.59 ± 0.33
44.52 K | 31.66 ± 0.33
45.16 K | 32.25 ± 0.33
45.3 K | 32.35 ± 0.33
45.96 K | 33.05 ± 0.34
46.09 K | 33.04 ± 0.34
46.74 K | 33.72 ± 0.35
46.88 K | 33.8 ± 0.35
47.53 K | 34.42 ± 0.35
47.68 K | 34.54 ± 0.35
48.33 K | 35.15 ± 0.36
48.49 K | 35.21 ± 0.36
49.13 K | 35.86 ± 0.37
49.31 K | 35.98 ± 0.37
49.94 K | 36.62 ± 0.38
50 K | 36.64 ± 0.38
50.14 K | 36.77 ± 0.38
50.75 K | 37.33 ± 0.38
51.57 K | 38.05 ± 0.39
52.37 K | 38.74 ± 0.4
53.17 K | 39.44 ± 0.4
53.96 K | 40.14 ± 0.41
54.75 K | 40.85 ± 0.42
55.53 K | 41.56 ± 0.42
56.33 K | 42.23 ± 0.43
57.14 K | 42.92 ± 0.44
57.94 K | 43.52 ± 0.45
58.76 K | 44.3 ± 0.45
59.58 K | 45.03 ± 0.46
60 K | 45.42 ± 0.46
60.41 K | 45.79 ± 0.47
61.24 K | 46.57 ± 0.47
62.08 K | 47.21 ± 0.48
62.92 K | 47.95 ± 0.49
63.78 K | 48.66 ± 0.5
64.64 K | 49.47 ± 0.51
65.5 K | 50.22 ± 0.51
66.42 K | 50.91 ± 0.52
67.38 K | 51.71 ± 0.53
68.32 K | 52.51 ± 0.54
69.24 K | 53.27 ± 0.54
70 K | 53.92 ± 0.55
70.15 K | 54.04 ± 0.55
71.1 K | 54.88 ± 0.56
72.09 K | 55.67 ± 0.57
73.08 K | 56.51 ± 0.58
74.09 K | 57.32 ± 0.58
75.11 K | 58.14 ± 0.59
76.17 K | 59.03 ± 0.6
77.3 K | 59.96 ± 0.61
78.43 K | 60.89 ± 0.62
79.19 K | 61.65 ± 0.63
79.55 K | 61.8 ± 0.63
80 K | 62.17 ± 0.63
80.16 K | 62.27 ± 0.63
80.67 K | 62.64 ± 0.64
81.12 K | 63.07 ± 0.64
81.85 K | 63.65 ± 0.65
82.06 K | 63.87 ± 0.65
82.72 K | 64.37 ± 0.66
83.04 K | 64.72 ± 0.66
83.07 K | 64.59 ± 0.66
83.74 K | 65.19 ± 0.66
84.05 K | 65.44 ± 0.67
84.3 K | 65.6 ± 0.67
84.74 K | 66.03 ± 0.67
85.05 K | 66.26 ± 0.67
85.58 K | 66.72 ± 0.68
85.73 K | 66.8 ± 0.68
86.07 K | 67.06 ± 0.68
86.71 K | 67.55 ± 0.69
86.87 K | 67.6 ± 0.69
87.09 K | 67.95 ± 0.69
87.73 K | 68.44 ± 0.7
88.15 K | 68.72 ± 0.7
88.2 K | 68.72 ± 0.7
88.8 K | 69.22 ± 0.7
89.24 K | 69.63 ± 0.71
89.57 K | 69.81 ± 0.71
89.88 K | 70.11 ± 0.71
90 K | 70.2 ± 0.73
90.32 K | 70.45 ± 0.73
90.92 K | 70.89 ± 0.73
90.95 K | 70.98 ± 0.73
91.39 K | 71.33 ± 0.74
92.01 K | 71.78 ± 0.74
92.24 K | 71.95 ± 0.74
92.44 K | 72.09 ± 0.75
93.1 K | 72.72 ± 0.75
93.53 K | 73.06 ± 0.76
93.55 K | 72.93 ± 0.76
94.22 K | 73.58 ± 0.76
94.64 K | 73.83 ± 0.76
94.9 K | 74.01 ± 0.77
95.33 K | 74.47 ± 0.77
95.76 K | 74.71 ± 0.77
96.28 K | 75.12 ± 0.78
96.44 K | 75.31 ± 0.78
96.92 K | 75.66 ± 0.78
97.56 K | 76.24 ± 0.79
97.64 K | 76.12 ± 0.79
98.12 K | 76.55 ± 0.79
98.71 K | 77.11 ± 0.8
98.99 K | 77.22 ± 0.8
99.36 K | 77.58 ± 0.8
99.92 K | 78.04 ± 0.81
100 K | 78.04 ± 0.8
100.32 K | 78.22 ± 0.81
100.64 K | 78.58 ± 0.81
101.13 K | 78.97 ± 0.81
101.68 K | 79.27 ± 0.82
101.91 K | 79.49 ± 0.82
102.33 K | 79.86 ± 0.82
103.08 K | 80.34 ± 0.83
103.16 K | 80.4 ± 0.83
103.51 K | 80.73 ± 0.83
104.4 K | 81.45 ± 0.84
104.47 K | 81.42 ± 0.84
104.73 K | 81.75 ± 0.84
105.67 K | 82.37 ± 0.85
105.83 K | 82.47 ± 0.85
105.97 K | 82.66 ± 0.85
106.98 K | 83.32 ± 0.86
107.19 K | 83.5 ± 0.86
107.21 K | 83.56 ± 0.86
108.27 K | 84.28 ± 0.87
108.43 K | 84.6 ± 0.87
108.57 K | 84.51 ± 0.87
109.54 K | 85.27 ± 0.88
109.64 K | 85.41 ± 0.88
109.99 K | 85.61 ± 0.88
110 K | 85.65 ± 0.88
110.81 K | 86.25 ± 0.89
110.88 K | 86.33 ± 0.89
111.39 K | 86.67 ± 0.89
112.1 K | 87.19 ± 0.9
112.15 K | 87.32 ± 0.9
112.78 K | 87.7 ± 0.9
113.41 K | 88.29 ± 0.91
113.43 K | 88.23 ± 0.91
114.16 K | 88.71 ± 0.91
114.66 K | 89.15 ± 0.92
114.74 K | 89.18 ± 0.92
115.57 K | 89.78 ± 0.92
115.89 K | 90.08 ± 0.92
116.04 K | 90.2 ± 0.93
117.01 K | 90.83 ± 0.93
117.16 K | 91.03 ± 0.93
117.33 K | 91.11 ± 0.93
118.44 K | 91.9 ± 0.94
118.47 K | 92.11 ± 0.94
118.65 K | 92.13 ± 0.94
119.8 K | 92.98 ± 0.95
119.86 K | 92.95 ± 0.95
120 K | 93.09 ± 0.95
120.39 K | 93.31 ± 0.96
121.11 K | 93.95 ± 0.96
121.28 K | 94.01 ± 0.96
121.69 K | 94.22 ± 0.96
122.42 K | 94.92 ± 0.97
122.77 K | 95.15 ± 0.97
